Experiment [1] deals with Muscarinic acetylcholine receptor M3 (Homo sapiens, UniProt P20309).
Experiment [2] has as its target Delta-type opioid receptor (Homo sapiens, UniProt P41143).
The next experiment deals with T1, Adenosine receptor A3 (Homo sapiens, UniProt P0DMS8).
T1 sequence (P0DMS8 whole entry): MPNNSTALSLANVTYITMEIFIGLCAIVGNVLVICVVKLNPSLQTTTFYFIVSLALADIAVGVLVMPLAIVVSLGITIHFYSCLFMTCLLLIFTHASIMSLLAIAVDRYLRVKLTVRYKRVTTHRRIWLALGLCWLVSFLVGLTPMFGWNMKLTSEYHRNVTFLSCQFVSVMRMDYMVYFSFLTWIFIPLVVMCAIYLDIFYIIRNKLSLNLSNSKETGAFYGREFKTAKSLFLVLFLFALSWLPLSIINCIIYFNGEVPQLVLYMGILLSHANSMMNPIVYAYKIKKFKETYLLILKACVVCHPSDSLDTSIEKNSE

Another experiment has as its target Histamine H2 receptor (Homo sapiens, UniProt P25021). Type of experiment: functional, cell-based.
Experiment [3] concerns the target Kappa-type opioid receptor (Homo sapiens, UniProt P41145).
The target of experiment [4] is Sodium-dependent serotonin transporter (Homo sapiens, UniProt P31645).
Chain of Sodium-dependent serotonin transporter (P31645 whole entry): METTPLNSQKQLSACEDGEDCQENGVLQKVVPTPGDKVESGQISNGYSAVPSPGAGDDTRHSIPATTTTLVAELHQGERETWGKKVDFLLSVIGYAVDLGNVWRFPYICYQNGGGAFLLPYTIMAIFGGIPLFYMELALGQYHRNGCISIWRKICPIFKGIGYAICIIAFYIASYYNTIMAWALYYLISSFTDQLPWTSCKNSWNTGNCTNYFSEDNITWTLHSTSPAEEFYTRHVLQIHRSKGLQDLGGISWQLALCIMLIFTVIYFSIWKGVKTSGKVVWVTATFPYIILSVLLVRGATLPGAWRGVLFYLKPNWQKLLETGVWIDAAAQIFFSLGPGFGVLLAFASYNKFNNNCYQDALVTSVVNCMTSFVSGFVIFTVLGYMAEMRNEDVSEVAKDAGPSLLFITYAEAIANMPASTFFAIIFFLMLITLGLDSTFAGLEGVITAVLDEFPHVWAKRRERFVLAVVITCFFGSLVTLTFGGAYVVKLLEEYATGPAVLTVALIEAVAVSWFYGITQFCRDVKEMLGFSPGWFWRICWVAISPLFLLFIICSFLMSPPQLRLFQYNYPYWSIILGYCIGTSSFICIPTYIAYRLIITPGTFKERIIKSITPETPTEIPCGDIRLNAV
In experiment [5] the target is T2, Cholecystokinin receptor type A (Homo sapiens, UniProt P32238).
T2 sequence (P32238 whole entry): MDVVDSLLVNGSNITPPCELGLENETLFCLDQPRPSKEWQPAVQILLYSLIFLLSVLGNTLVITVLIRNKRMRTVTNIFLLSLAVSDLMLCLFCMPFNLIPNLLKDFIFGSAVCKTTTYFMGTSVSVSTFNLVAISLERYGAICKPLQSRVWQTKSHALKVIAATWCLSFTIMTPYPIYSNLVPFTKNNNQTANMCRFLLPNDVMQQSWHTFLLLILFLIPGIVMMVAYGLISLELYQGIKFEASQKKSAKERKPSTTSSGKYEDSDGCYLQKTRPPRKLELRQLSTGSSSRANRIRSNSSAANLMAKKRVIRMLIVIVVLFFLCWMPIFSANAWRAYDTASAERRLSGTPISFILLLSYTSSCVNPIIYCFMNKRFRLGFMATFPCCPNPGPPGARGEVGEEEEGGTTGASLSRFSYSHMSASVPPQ

A further experiment has as its target T3, Estrogen receptor (Homo sapiens, UniProt P03372).
T3 sequence (P03372 whole entry): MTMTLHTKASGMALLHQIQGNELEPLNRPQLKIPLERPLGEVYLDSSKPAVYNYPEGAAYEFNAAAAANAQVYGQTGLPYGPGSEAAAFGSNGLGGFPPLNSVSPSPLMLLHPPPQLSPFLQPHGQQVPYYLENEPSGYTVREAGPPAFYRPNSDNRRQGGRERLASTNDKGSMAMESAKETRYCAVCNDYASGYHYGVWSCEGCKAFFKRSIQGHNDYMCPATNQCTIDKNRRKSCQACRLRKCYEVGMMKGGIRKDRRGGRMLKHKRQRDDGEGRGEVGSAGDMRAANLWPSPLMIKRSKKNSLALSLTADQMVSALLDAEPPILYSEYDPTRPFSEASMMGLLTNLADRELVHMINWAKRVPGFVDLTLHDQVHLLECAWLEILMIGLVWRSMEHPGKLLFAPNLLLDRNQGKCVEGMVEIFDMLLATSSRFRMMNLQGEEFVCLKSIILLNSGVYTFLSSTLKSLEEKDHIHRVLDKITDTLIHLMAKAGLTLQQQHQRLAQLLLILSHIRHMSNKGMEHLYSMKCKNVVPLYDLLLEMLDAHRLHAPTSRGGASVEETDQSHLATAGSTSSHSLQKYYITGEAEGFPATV

A further experiment deals with T4, Progesterone receptor (Homo sapiens, UniProt P06401).
T4 sequence (P06401 whole entry): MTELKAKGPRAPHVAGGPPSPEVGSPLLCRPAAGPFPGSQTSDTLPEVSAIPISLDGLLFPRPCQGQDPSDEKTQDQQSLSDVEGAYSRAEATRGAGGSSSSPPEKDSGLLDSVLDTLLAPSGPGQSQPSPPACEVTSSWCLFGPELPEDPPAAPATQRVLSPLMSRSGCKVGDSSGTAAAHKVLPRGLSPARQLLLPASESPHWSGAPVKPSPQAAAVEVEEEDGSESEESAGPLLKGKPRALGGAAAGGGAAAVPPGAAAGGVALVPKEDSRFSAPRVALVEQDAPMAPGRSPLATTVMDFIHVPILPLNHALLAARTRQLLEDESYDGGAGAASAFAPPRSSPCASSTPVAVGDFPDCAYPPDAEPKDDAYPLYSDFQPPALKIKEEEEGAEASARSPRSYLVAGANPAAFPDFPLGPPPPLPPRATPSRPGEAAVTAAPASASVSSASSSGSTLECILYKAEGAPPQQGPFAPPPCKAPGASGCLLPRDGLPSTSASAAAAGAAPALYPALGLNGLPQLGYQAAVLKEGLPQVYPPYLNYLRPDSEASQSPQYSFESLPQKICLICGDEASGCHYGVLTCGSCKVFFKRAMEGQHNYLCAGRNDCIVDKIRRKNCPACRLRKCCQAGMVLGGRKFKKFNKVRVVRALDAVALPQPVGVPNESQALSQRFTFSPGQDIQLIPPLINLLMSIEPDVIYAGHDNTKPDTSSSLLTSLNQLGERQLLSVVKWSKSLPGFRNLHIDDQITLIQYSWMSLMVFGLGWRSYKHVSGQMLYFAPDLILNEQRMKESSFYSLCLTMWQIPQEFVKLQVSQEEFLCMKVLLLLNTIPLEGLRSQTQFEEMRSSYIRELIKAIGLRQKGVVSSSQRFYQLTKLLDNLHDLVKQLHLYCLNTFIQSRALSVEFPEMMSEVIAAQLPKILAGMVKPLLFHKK
Type of experiment: functional.

The target in another experiment is Histamine H3 receptor (Homo sapiens, UniProt Q9Y5N1).
Chain of Histamine H3 receptor (Q9Y5N1 whole entry): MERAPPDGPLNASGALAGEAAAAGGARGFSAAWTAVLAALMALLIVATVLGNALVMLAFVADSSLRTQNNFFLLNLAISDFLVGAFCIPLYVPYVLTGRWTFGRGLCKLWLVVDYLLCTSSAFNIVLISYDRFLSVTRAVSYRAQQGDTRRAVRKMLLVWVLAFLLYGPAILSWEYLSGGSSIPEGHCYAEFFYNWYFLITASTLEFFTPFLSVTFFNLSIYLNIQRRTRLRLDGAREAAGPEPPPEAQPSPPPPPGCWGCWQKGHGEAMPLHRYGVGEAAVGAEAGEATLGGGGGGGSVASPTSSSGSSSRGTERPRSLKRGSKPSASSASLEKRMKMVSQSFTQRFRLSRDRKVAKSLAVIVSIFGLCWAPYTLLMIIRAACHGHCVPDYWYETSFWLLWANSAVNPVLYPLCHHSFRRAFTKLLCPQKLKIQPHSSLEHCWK

The results in this text go back to ChEMBL document CHEMBL5291721, “A preclinical secondary pharmacology resource illuminates target-adverse drug reaction associations of marketed drugs” (Nat Commun, 2023).
Also: assay procedure not described here.

Chain of Delta-type opioid receptor (P41143 whole entry): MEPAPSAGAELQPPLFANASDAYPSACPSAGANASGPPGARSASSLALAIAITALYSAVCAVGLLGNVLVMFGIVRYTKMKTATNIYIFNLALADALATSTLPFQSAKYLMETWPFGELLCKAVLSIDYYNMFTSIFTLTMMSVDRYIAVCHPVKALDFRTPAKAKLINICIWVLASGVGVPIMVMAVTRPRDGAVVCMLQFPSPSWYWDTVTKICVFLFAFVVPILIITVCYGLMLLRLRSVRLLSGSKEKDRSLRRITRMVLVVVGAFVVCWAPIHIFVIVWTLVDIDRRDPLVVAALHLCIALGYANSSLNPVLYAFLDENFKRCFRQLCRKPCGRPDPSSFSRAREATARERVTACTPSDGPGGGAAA
Chain of Histamine H2 receptor (P25021 whole entry): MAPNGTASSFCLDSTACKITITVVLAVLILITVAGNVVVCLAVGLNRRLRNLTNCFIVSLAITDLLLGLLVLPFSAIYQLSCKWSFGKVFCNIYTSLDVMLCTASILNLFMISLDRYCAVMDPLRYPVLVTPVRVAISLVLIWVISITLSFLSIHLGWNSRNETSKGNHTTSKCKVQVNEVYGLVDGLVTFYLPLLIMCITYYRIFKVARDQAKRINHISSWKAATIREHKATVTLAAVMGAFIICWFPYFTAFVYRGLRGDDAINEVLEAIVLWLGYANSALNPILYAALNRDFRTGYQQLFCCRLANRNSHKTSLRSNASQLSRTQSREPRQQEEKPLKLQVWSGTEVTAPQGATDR
Chain of Kappa-type opioid receptor (P41145 whole entry): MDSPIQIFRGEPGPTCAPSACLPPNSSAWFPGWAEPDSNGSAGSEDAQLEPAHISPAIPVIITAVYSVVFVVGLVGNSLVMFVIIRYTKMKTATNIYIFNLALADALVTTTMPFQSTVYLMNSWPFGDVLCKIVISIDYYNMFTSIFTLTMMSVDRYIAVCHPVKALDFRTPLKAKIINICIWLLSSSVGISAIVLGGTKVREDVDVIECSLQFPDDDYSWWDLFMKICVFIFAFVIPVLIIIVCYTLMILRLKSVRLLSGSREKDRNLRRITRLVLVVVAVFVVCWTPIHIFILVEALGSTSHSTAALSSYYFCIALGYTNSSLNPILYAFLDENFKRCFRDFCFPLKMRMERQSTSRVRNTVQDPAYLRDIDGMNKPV
Chain of Muscarinic acetylcholine receptor M3 (P20309 whole entry): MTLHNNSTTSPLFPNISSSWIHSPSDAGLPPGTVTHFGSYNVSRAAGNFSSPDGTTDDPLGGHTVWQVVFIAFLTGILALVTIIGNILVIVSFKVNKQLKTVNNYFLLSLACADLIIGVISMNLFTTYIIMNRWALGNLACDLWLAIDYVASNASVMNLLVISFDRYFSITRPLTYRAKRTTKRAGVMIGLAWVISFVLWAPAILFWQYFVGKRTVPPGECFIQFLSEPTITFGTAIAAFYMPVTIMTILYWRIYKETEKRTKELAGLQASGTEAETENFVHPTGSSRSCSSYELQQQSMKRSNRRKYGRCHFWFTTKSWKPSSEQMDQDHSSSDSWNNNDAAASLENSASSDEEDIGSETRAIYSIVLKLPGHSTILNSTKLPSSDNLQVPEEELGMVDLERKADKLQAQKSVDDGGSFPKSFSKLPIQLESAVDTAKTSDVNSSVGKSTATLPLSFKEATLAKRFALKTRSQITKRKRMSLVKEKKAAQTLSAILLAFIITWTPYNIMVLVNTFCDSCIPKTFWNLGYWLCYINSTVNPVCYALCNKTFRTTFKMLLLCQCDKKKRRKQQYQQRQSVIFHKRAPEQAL

As a reminder, the AC50 is the concentration at which the activity in the assay is half-maximal. Low readings indicate greater potency, high ones weaker potency. As to `COC(=O)[C@H]1[C@H]2C[C@@H]3c4[nH]c5ccccc5c4CCN3C[C@H]2C[C@@H](OC(=O)c2cc(OC)c(OC)c(OC)c2)[C@@H]1OC` [DESERPIDINE], the AC50 was > 30 µM in [1]; > 30 µM in experiment [2]; 15.8 µM on Adenosine receptor A3; > 10 µM on Histamine H2 receptor; 13.7 µM in experiment [3]; > 10 µM in [4]. In addition, the AC50 in [5] was 34.4 µM; on Estrogen receptor it was > 30 µM; at Progesterone receptor it was > 30 µM.
Turning to `CCN1C(=O)NC(c2ccccc2)C1=O` (centres undefined) [ETHOTOIN], the AC50 at Histamine H3 receptor is > 30 µM; in experiment [1], > 30 µM; in experiment [2], > 30 µM; on Adenosine receptor A3, 12 µM; on Histamine H2 receptor it was > 30 µM; in [3] it was > 30 µM. Besides, the AC50 (in [4]; in [5]; on Estrogen receptor; on Progesterone receptor) was > 30 µM throughout.
On to `CCCCC[C@H](O)CC[C@@H]1[C@H]2Cc3cccc(OCC(=O)O)c3C[C@H]2C[C@H]1O` [TREPROSTINIL], for which the concentration at half-maximal activity (AC50) (on Histamine H3 receptor; in experiment [1]; in [2]; on Adenosine receptor A3; at Histamine H2 receptor; in [3]) was > 30 µM each time. The concentration at half-maximal activity (AC50) (in experiment [4]; in [5]; on Estrogen receptor; on Progesterone receptor) was > 30 µM throughout.
`CCC(=O)[C@@]1(C)[C@H](C)C[C@H]2[C@@H]3CCC4=CC(=O)C=C[C@]4(C)[C@H]3[C@@H](O)C[C@@]21C` [RIMEXOLONE]: the concentration at half-maximal activity (AC50) in experiment [1] was > 30 µM; in experiment [2] it was > 30 µM; on Adenosine receptor A3, > 10 µM; at Histamine H2 receptor, > 10 µM; in experiment [3] it was > 10 µM; in experiment [4], > 10 µM. Also, the half-maximal activity concentration (AC50) in experiment [5] was > 10 µM; at Estrogen receptor it was > 30 µM; at Progesterone receptor, 0.0032 µM.
For the compound `CS(=O)(=O)NC(=O)CCC/C=C\C[C@H]1C(=O)C[C@@H](O)[C@@H]1/C=C/[C@@H](O)COc1ccccc1` [SULPROSTONE], the half-maximal activity concentration (AC50) (at Histamine H3 receptor; in [1]; in experiment [2]; at Adenosine receptor A3; at Histamine H2 receptor; in experiment [3]) was > 30 µM each time. For the same compound, the AC50 (in experiment [4]; in experiment [5]; at Estrogen receptor; on Progesterone receptor) was > 30 µM each time.
Take `CCN(CC)CCCN(c1ccccc1)C1Cc2ccccc2C1` [APRINDINE]: the concentration at half-maximal activity (AC50) at Histamine H3 receptor is 18 µM; in experiment [1], > 30 µM; in experiment [2] it was > 30 µM; at Adenosine receptor A3, > 30 µM; at Histamine H2 receptor, > 30 µM; in experiment [3] it was 0.795 µM. Moreover, the AC50 in [4] is 3.3 µM; in [5] it was > 30 µM; on Estrogen receptor, > 30 µM; on Progesterone receptor, > 30 µM.
As for `NS(=O)(=O)c1ccc(N2CCCCS2(=O)=O)cc1`, the AC50 on Histamine H3 receptor was > 30 µM; in [1] it was > 30 µM; in experiment [2], > 30 µM; on Adenosine receptor A3, > 30 µM; at Histamine H2 receptor, > 30 µM; in experiment [3] it was 21 µM. Moreover, the concentration at half-maximal activity (AC50) (in experiment [4]; in [5]; at Estrogen receptor; at Progesterone receptor) was > 30 µM throughout.
For `CCCO[C@H]1[C@@H]([C@@H](COCc2ccc(Cl)cc2)OCc2ccc(Cl)cc2)OC(OCC)[C@@H]1O` (some centres undefined) [CLOBENOSIDE], the AC50 on Histamine H3 receptor is > 30 µM; in experiment [1], > 30 µM; in experiment [2] it was > 30 µM; at Adenosine receptor A3, 20 µM; at Histamine H2 receptor, > 30 µM; in experiment [3], 27 µM. Moreover, the AC50 in [4] is > 30 µM; in [5] it was > 30 µM; on Estrogen receptor it was > 10 µM; at Progesterone receptor, > 30 µM.
`CC1=C(/C=C/C(C)=C/C=C/C(C)=C/C(=O)Oc2c(C)c(C)c3c(c2C)CCC(C)(CCCC(C)CCCC(C)CCCC(C)C)O3)C(C)(C)CCC1` (centres undefined) [TRETINOIN TOCOFERIL]: the AC50 (at Histamine H3 receptor; in experiment [1]; in experiment [2]; at Adenosine receptor A3; at Histamine H2 receptor; in [3]) was > 30 µM each time. The AC50 (in experiment [4]; in experiment [5]; on Estrogen receptor; on Progesterone receptor) was > 30 µM throughout.
For `CN(C)CCOC(=O)C(c1ccccc1)C1(O)CCCC1` (centres undefined) [CYCLOPENTOLATE], the AC50 in experiment [1] was 0.04 µM; in experiment [2], > 30 µM; at Adenosine receptor A3, > 10 µM; at Histamine H2 receptor, > 30 µM; in [3] it was > 10 µM; in experiment [4], > 30 µM. The AC50 (in experiment [5]; at Estrogen receptor; on Progesterone receptor) was > 10 µM throughout.
Consider `Cc1cnc(Nc2ccc(OCCN3CCCC3)cc2)nc1Nc1cccc(S(=O)(=O)NC(C)(C)C)c1` [FEDRATINIB], for which the half-maximal activity concentration (AC50) at Histamine H3 receptor was 3.9 µM; in experiment [1], 5.7 µM; in [2], > 30 µM; at Adenosine receptor A3 it was 6.83 µM; at Histamine H2 receptor it was > 10 µM; in [3] it was 15.4 µM. Also, the AC50 in experiment [4] was 0.732 µM; in experiment [5] it was > 30 µM; at Estrogen receptor, > 30 µM.
On to `CCOC(=O)O[C@]1(C(=O)COC(=O)CC)CC[C@H]2[C@@H]3CCC4=CC(=O)C=C[C@]4(C)[C@H]3[C@@H](O)C[C@@]21C` [PREDNICARBATE], for which the AC50 in experiment [1] is > 30 µM; in [2] it was > 30 µM; on Adenosine receptor A3, > 10 µM; at Histamine H2 receptor, > 10 µM; in [3], > 10 µM; in [4], > 10 µM. For the same compound, the results for the concentration at half-maximal activity (AC50) (in experiment [5]; at Estrogen receptor; at Progesterone receptor) were > 10 µM, > 30 µM and 1.3 µM, respectively.
Regarding `CC1NCCOC1c1ccccc1` (centres undefined) [PHENMETRAZINE], the AC50 on Histamine H3 receptor was > 10 µM; in [1], > 30 µM; in experiment [2] it was > 30 µM; at Adenosine receptor A3, > 30 µM; at Histamine H2 receptor, > 10 µM; in [3], > 10 µM. In addition, the AC50 (in experiment [4]; in experiment [5]; at Estrogen receptor) was > 30 µM in each case.
